Laboratory results: the supplement of paper PMC10307832

Legend:
Assay in all cases: relative viability (nuclei count vs DMSO), 5 days (fraction); higher = more cells survive
[1] = compound: Cc1ccc2nc(NCCN)c3ncc(C)n3c2c1 + CC(=O)c1c(C)c2cnc(Nc3ccc(N4CCNCC4)cn3)nc2n(C2CCCC2)c1=O [Palbociclib] (partner 0.5 µM)
Method in brief: (§1)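 Dosing by pin tool came one day after lung cancer cell lines were seeded in 1536-well plates, using either one drug or a fixed anchor-drug dose plus five library-drug doses (not always all listed) in √10 steps. After 5 days, nuclei were counted on 4× images. Relative viability is treated-well nuclei count divided by vehicle-well nuclei count, and values are medians of duplicate plates.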

Salubrinal + Vorinostat = compound: O=C(/C=C/c1ccccc1)NC(NC(=S)Nc1cccc2cccnc12)C(Cl)(Cl)Cl [Salubrinal] + O=C(CCCCCCC(=O)Nc1ccccc1)NO [Vorinostat] (partner 1 µM)
Method in brief: as §1

[2] = compound: Cc1ccc2nc(NCCN)c3ncc(C)n3c2c1 + C[C@@H](Oc1cc(-c2cnn(C3CCNCC3)c2)cnc1N)c1c(Cl)ccc(F)c1Cl [Crizotinib] (partner 1 µM)
Method in brief: as §1

Salubrinal + Bortezomib = compound: O=C(/C=C/c1ccccc1)NC(NC(=S)Nc1cccc2cccnc12)C(Cl)(Cl)Cl [Salubrinal] + CC(C)C[C@H](NC(=O)[C@H](Cc1ccccc1)NC(=O)c1cnccn1)B(O)O [Bortezomib] (partner 0.002 µM)
Method in brief: as §1

Cell Line | relative viability ([1]; first compound 0.04 µM) | relative viability ([1]; first compound 0.1265 µM) | relative viability ([1]; first compound 0.4 µM) | relative viability ([1]; first compound 1.265 µM) | relative viability ([1]; first compound 4 µM) | relative viability (Salubrinal + Vorinostat; first compound 0.08 µM) | relative viability (Salubrinal + Vorinostat; first compound 0.253 µM) | relative viability (Salubrinal + Vorinostat; first compound 0.8 µM) | relative viability (Salubrinal + Vorinostat; first compound 2.53 µM) | relative viability (Salubrinal + Vorinostat; first compound 8 µM) | relative viability ([2]; first compound 0.04 µM) | relative viability ([2]; first compound 0.1265 µM) | relative viability ([2]; first compound 0.4 µM) | relative viability ([2]; first compound 1.265 µM) | relative viability ([2]; first compound 4 µM) | relative viability (Salubrinal + Bortezomib; first compound 0.08 µM) | relative viability (Salubrinal + Bortezomib; first compound 0.253 µM) | relative viability (Salubrinal + Bortezomib; first compound 0.8 µM) | relative viability (Salubrinal + Bortezomib; first compound 2.53 µM) | relative viability (Salubrinal + Bortezomib; first compound 8 µM)
NCI-H522 | 0.83 | 1.17 | 1.01 | 1.04 | 0.87 | 1.03 | 0.944 | 0.972 | 0.889 | 0.844 |  |  |  |  |  |  |  |  |  | 
NCI-H596 |  |  |  |  |  | 0.607 | 0.356 | 0.796 | 0.825 | 0.715 | 1.06 | 0.929 | 1.03 | 0.961 | 0.851 | 1.1 | 0.807 | 1.01 | 1.13 | 1
NCI-H1299 |  |  |  |  |  |  |  |  |  |  | 0.9 | 0.937 | 0.951 | 0.917 | 0.659 | 1.05 | 0.971 | 1.02 | 1.02 | 1.02
NCI-H1395 | 0.647 | 0.613 | 0.597 | 0.546 | 0.557 | 0.617 | 0.768 | 1.09 | 0.901 | 0.558 |  |  |  |  |  |  |  |  |  | 
NCI-H1563 |  |  |  |  |  |  |  |  |  |  | 0.865 | 0.835 | 0.906 | 0.918 | 0.88 | 0.791 | 0.937 | 0.859 | 0.844 | 0.776
NCI-H1648 | 0.272 | 0.27 | 0.237 | 0.25 | 0.282 | 0.431 | 0.419 | 0.649 | 0.345 | 0.242 |  |  |  |  |  |  |  |  |  | 
NCI-H1703 |  |  |  |  |  |  |  |  |  |  | 0.89 | 0.679 | 0.623 | 0.709 | 0.563 | 0.365 | 0.268 | 0.242 | 0.322 | 0.293
NCI-H1792 | 0.694 | 0.649 | 0.652 | 0.562 | 0.625 |  |  |  |  |  | 1.03 | 1.03 | 0.946 | 1.01 | 0.905 | 1.2 |  | 1.23 | 0.92 | 0.806
NCI-H1793 | 0.303 | 0.328 | 0.283 | 0.312 | 0.318 | 0.942 | 0.57 | 0.995 | 0.814 | 0.719 |  |  |  |  |  |  |  |  |  | 
NCI-H1944 | 0.333 | 0.322 | 0.349 | 0.31 | 0.297 | 0.69 | 0.54 | 0.662 | 0.504 | 0.645 | 1.05 | 1.18 | 1.09 | 1.19 | 1.09 |  |  |  |  | 
NCI-H2170 | 0.388 | 0.445 | 0.356 | 0.381 | 0.342 | 0.861 | 0.742 | 0.923 | 0.956 | 0.638 | 1.17 | 1.14 | 1.1 | 1.21 | 1.06 |  |  |  |  | 
NCI-H2342 | 0.626 | 0.552 | 0.479 | 0.532 | 0.531 | 0.666 | 0.631 | 0.715 | 0.668 | 0.768 |  |  |  |  |  |  |  |  |  | 
SK-MES-1 | 0.341 | 0.298 | 0.351 | 0.341 | 0.326 | 1.35 | 1 | 1.28 | 1.1 | 0.936 | 0.924 | 0.939 | 0.911 | 1.03 | 0.912 |  |  |  |  | 
SW 900 |  | 0.522 | 0.587 | 0.464 | 0.589 | 0.735 | 0.379 | 0.731 | 0.505 | 0.804 |  |  |  |  |  |  |  |  |  | 
